{
  "source": "ChEMBL document CHEMBL5620381",
  "about": "“Design, synthesis and antitubercular activity of novel N-(amino)piperazinyl benzothiazinones with improved safety” (Eur J Med Chem, 2023)",
  "key": {"[1]": {"tested_on": "Mycobacterium tuberculosis", "assay": "Antitubercular activity against multidrug resistant Mycobacterium tuberculosis 16883 incubated for 8 days by MABA", "type": "functional", "details": "Mycobacterium tuberculosis, 16883, 192 h; time 8 day"}, "[2]": {"tested_on": "Mycobacterium tuberculosis", "assay": "Antitubercular activity against multidrug resistant Mycobacterium tuberculosis 16995 incubated for 8 days by MABA", "type": "functional", "details": "Mycobacterium tuberculosis, 16995, 192 h; time 8 day"}},
  "data": [
    {"compound": "O=c1nc(N2CCN(NC3CCCCC3)CC2)sc2c([N+](=O)[O-])cc(C(F)(F)F)cc12", "values": [
      {"measurement": "MIC", "setting": "[1]", "value": "< 1", "unit": "ng/mL"},
      {"measurement": "MIC", "setting": "[2]", "value": "< 1", "unit": "ng/mL"}
    ]},
    {"compound": "CON=C1CCC(N(C)N2CCN(c3nc(=O)c4cc(C(F)(F)F)cc([N+](=O)[O-])c4s3)CC2)CC1", "note": "(stereo not drawn)", "values": [
      {"measurement": "MIC", "setting": "[1]", "value": "< 1", "unit": "ng/mL"},
      {"measurement": "MIC", "setting": "[2]", "value": "< 1", "unit": "ng/mL"}
    ]},
    {"compound": "O=c1nc(N2CCN(NC3CCCCCCC3)CC2)sc2c([N+](=O)[O-])cc(C(F)(F)F)cc12", "values": [
      {"measurement": "MIC", "setting": "[1]", "value": "< 1", "unit": "ng/mL"},
      {"measurement": "MIC", "setting": "[2]", "value": "< 1", "unit": "ng/mL"}
    ]},
    {"compound": "CN(C1CCC(C)(C)CC1)N1CCN(c2nc(=O)c3cc(C(F)(F)F)cc([N+](=O)[O-])c3s2)CC1", "values": [
      {"measurement": "MIC", "setting": "[1]", "value": "< 1", "unit": "ng/mL"},
      {"measurement": "MIC", "setting": "[2]", "value": "< 1", "unit": "ng/mL"}
    ]},
    {"compound": "CN(C1C2CC3CC(C2)CC1C3)N1CCN(c2nc(=O)c3cc(C(F)(F)F)cc([N+](=O)[O-])c3s2)CC1", "note": "(stereo not drawn)", "values": [
      {"measurement": "MIC", "setting": "[1]", "value": "< 1", "unit": "ng/mL"},
      {"measurement": "MIC", "setting": "[2]", "value": 1.5, "unit": "ng/mL"}
    ]},
    {"compound": "CC1CC(N(C)N2CCN(c3nc(=O)c4cc(C(F)(F)F)cc([N+](=O)[O-])c4s3)CC2)CC(C)(C)C1", "note": "(stereo not drawn)", "values": [
      {"measurement": "MIC", "setting": "[1]", "value": "< 1", "unit": "ng/mL"},
      {"measurement": "MIC", "setting": "[2]", "value": "< 1", "unit": "ng/mL"}
    ]},
    {"compound": "CON=C1CCC(N(C)N2CCN(c3nc(=O)c4cc(C(F)(F)F)cc([N+](=O)[O-])c4s3)CC2(C)C)CC1", "note": "(stereo not drawn)", "values": [
      {"measurement": "MIC", "setting": "[1]", "value": 125, "unit": "ng/mL"},
      {"measurement": "MIC", "setting": "[2]", "value": 15.7, "unit": "ng/mL"}
    ]},
    {"compound": "CN(C1CCC2(CCCCC2)CC1)N1CCN(c2nc(=O)c3cc(C(F)(F)F)cc([N+](=O)[O-])c3s2)CC1", "values": [
      {"measurement": "MIC", "setting": "[1]", "value": "< 1", "unit": "ng/mL"},
      {"measurement": "MIC", "setting": "[2]", "value": "< 1", "unit": "ng/mL"}
    ]},
    {"compound": "CC1CCC(C)C(N(C)N2CCN(c3nc(=O)c4cc(C(F)(F)F)cc([N+](=O)[O-])c4s3)CC2)C1", "note": "(stereo not drawn)", "values": [
      {"measurement": "MIC", "setting": "[1]", "value": "< 1", "unit": "ng/mL"},
      {"measurement": "MIC", "setting": "[2]", "value": "< 1", "unit": "ng/mL"}
    ]},
    {"compound": "CN(C1CCCCC1)N1CCN(c2nc(=O)c3cc(C(F)(F)F)cc([N+](=O)[O-])c3s2)CC1", "values": [
      {"measurement": "MIC", "setting": "[1]", "value": "< 1", "unit": "ng/mL"},
      {"measurement": "MIC", "setting": "[2]", "value": "< 1", "unit": "ng/mL"}
    ]},
    {"compound": "CN(C1CCC(C)(C)CC1)N1CCN(c2nc(=O)c3cc(C(F)(F)F)cc([N+](=O)[O-])c3s2)CC1(C)C", "values": [
      {"measurement": "MIC", "setting": "[1]", "value": "< 1", "unit": "ng/mL"},
      {"measurement": "MIC", "setting": "[2]", "value": "< 1", "unit": "ng/mL"}
    ]},
    {"compound": "CN(C1CCCCC1)N1CCN(c2nc(=O)c3cc(C(F)(F)F)cc([N+](=O)[O-])c3s2)CC1(C)C", "values": [
      {"measurement": "MIC", "setting": "[1]", "value": "< 1", "unit": "ng/mL"},
      {"measurement": "MIC", "setting": "[2]", "value": "< 1", "unit": "ng/mL"}
    ]},
    {"compound": "CC1CCC(N(C)N2CCN(c3nc(=O)c4cc(C(F)(F)F)cc([N+](=O)[O-])c4s3)CC2)CC1", "note": "(stereo not drawn)", "values": [
      {"measurement": "MIC", "setting": "[1]", "value": "< 1", "unit": "ng/mL"},
      {"measurement": "MIC", "setting": "[2]", "value": "< 1", "unit": "ng/mL"}
    ]},
    {"compound": "CN(C1CCCCCCC1)N1CCN(c2nc(=O)c3cc(C(F)(F)F)cc([N+](=O)[O-])c3s2)CC1", "values": [
      {"measurement": "MIC", "setting": "[1]", "value": "< 1", "unit": "ng/mL"},
      {"measurement": "MIC", "setting": "[2]", "value": "< 1", "unit": "ng/mL"}
    ]},
    {"compound": "CC1(C)CCC(NN2CCN(c3nc(=O)c4cc(C(F)(F)F)cc([N+](=O)[O-])c4s3)CC2)CC1", "values": [
      {"measurement": "MIC", "setting": "[1]", "value": "< 1", "unit": "ng/mL"},
      {"measurement": "MIC", "setting": "[2]", "value": "< 1", "unit": "ng/mL"}
    ]},
    {"compound": "CN(C1CCC(=NOC(C)(C)C)CC1)N1CCN(c2nc(=O)c3cc(C(F)(F)F)cc([N+](=O)[O-])c3s2)CC1", "note": "(stereo not drawn)", "values": [
      {"measurement": "MIC", "setting": "[1]", "value": 5.25, "unit": "ng/mL"},
      {"measurement": "MIC", "setting": "[2]", "value": 12.8, "unit": "ng/mL"}
    ]},
    {"compound": "O=c1nc(N2CCN(NC3CCC(F)(F)CC3)CC2)sc2c([N+](=O)[O-])cc(C(F)(F)F)cc12", "values": [
      {"measurement": "MIC", "setting": "[1]", "value": 3.15, "unit": "ng/mL"},
      {"measurement": "MIC", "setting": "[2]", "value": 4, "unit": "ng/mL"}
    ]},
    {"compound": "CC1CCCCC1NN1CCN(c2nc(=O)c3cc(C(F)(F)F)cc([N+](=O)[O-])c3s2)CC1", "note": "(stereo not drawn)", "values": [
      {"measurement": "MIC", "setting": "[1]", "value": "< 1", "unit": "ng/mL"},
      {"measurement": "MIC", "setting": "[2]", "value": "< 1", "unit": "ng/mL"}
    ]},
    {"compound": "CON=C1CCC(N(C)N2CCN(c3nc(=O)c4cc(C(F)(F)F)cc([N+](=O)[O-])c4s3)CC2C)CC1", "note": "(stereo not drawn)", "values": [
      {"measurement": "MIC", "setting": "[1]", "value": 6.65, "unit": "ng/mL"},
      {"measurement": "MIC", "setting": "[2]", "value": 14.9, "unit": "ng/mL"}
    ]},
    {"compound": "CN(C1CCC(F)(F)CC1)N1CCN(c2nc(=O)c3cc(C(F)(F)F)cc([N+](=O)[O-])c3s2)CC1", "values": [
      {"measurement": "MIC", "setting": "[1]", "value": "< 1", "unit": "ng/mL"},
      {"measurement": "MIC", "setting": "[2]", "value": "< 1", "unit": "ng/mL"}
    ]},
    {"compound": "CCON=C1CCC(N(C)N2CCN(c3nc(=O)c4cc(C(F)(F)F)cc([N+](=O)[O-])c4s3)CC2)CC1", "note": "(stereo not drawn)", "values": [
      {"measurement": "MIC", "setting": "[1]", "value": 11.4, "unit": "ng/mL"},
      {"measurement": "MIC", "setting": "[2]", "value": 11.2, "unit": "ng/mL"}
    ]},
    {"compound": "CC1CN(c2nc(=O)c3cc(C(F)(F)F)cc([N+](=O)[O-])c3s2)CCN1N(C)C1CCC(C)(C)CC1", "note": "(stereo not drawn)", "values": [
      {"measurement": "MIC", "setting": "[1]", "value": "< 1", "unit": "ng/mL"},
      {"measurement": "MIC", "setting": "[2]", "value": "< 1", "unit": "ng/mL"}
    ]},
    {"compound": "CC1CCC(NN2CCN(c3nc(=O)c4cc(C(F)(F)F)cc([N+](=O)[O-])c4s3)CC2)CC1", "note": "(stereo not drawn)", "values": [
      {"measurement": "MIC", "setting": "[1]", "value": "< 1", "unit": "ng/mL"},
      {"measurement": "MIC", "setting": "[2]", "value": "< 1", "unit": "ng/mL"}
    ]},
    {"compound": "CC1CN(c2nc(=O)c3cc(C(F)(F)F)cc([N+](=O)[O-])c3s2)CCN1N(C)C1CCCCC1", "note": "(stereo not drawn)", "values": [
      {"measurement": "MIC", "setting": "[1]", "value": "< 1", "unit": "ng/mL"},
      {"measurement": "MIC", "setting": "[2]", "value": "< 1", "unit": "ng/mL"}
    ]},
    {"compound": "CC1CCCCC1N(C)N1CCN(c2nc(=O)c3cc(C(F)(F)F)cc([N+](=O)[O-])c3s2)CC1", "note": "(stereo not drawn)", "values": [
      {"measurement": "MIC", "setting": "[1]", "value": "< 1", "unit": "ng/mL"},
      {"measurement": "MIC", "setting": "[2]", "value": "< 1", "unit": "ng/mL"}
    ]},
    {"compound": "CN(CC1CCC(F)(F)CC1)N1CCN(c2nc(=O)c3cc(C(F)(F)F)cc([N+](=O)[O-])c3s2)CC1", "values": [
      {"measurement": "MIC", "setting": "[1]", "value": "< 1", "unit": "ng/mL"},
      {"measurement": "MIC", "setting": "[2]", "value": "< 1", "unit": "ng/mL"}
    ]},
    {"compound": "NNC(=O)c1ccncc1", "note": "[ISONIAZID]", "values": [
      {"measurement": "MIC", "setting": "[1]", "value": "> 20000", "unit": "ng/mL"},
      {"measurement": "MIC", "setting": "[2]", "value": "> 20000", "unit": "ng/mL"}
    ]},
    {"compound": "O=c1nc(N2CCN(CC3CCCCC3)CC2)sc2c([N+](=O)[O-])cc(C(F)(F)F)cc12", "note": "[MACOZINONE]", "values": [
      {"measurement": "MIC", "setting": "[1]", "value": "< 1", "unit": "ng/mL"},
      {"measurement": "MIC", "setting": "[2]", "value": "< 1", "unit": "ng/mL"}
    ]},
    {"compound": "CO[C@H]1/C=C/O[C@@]2(C)Oc3c(C)c(O)c4c(O)c(c(/C=N/N5CCN(C)CC5)c(O)c4c3C2=O)NC(=O)/C(C)=C\\C=C\\[C@H](C)[C@H](O)[C@@H](C)[C@@H](O)[C@@H](C)[C@H](OC(C)=O)[C@@H]1C", "note": "[RIFAMPIN]", "values": [
      {"measurement": "MIC", "setting": "[1]", "value": "> 20000", "unit": "ng/mL"},
      {"measurement": "MIC", "setting": "[2]", "value": "> 20000", "unit": "ng/mL"}
    ]}
  ]
}
